Assay results: USRE48335E1, “Polymyxin derivatives as antimicrobial compounds” (priority 2014, dated 2020)
Values after ≈ are worked out from the molar mass of the structure shown. Read-outs that look alike come from different tables or passages of the source. Positions of bridges follow the written chain, without caps; N, C: chain ends. Non-standard residues stand in square brackets, D forms with d. Residues, ends and D or L forms follow the SMILES beside them. *: point of attachment. Benzoyl(3-Ph) = O=C(c1cccc(-c2ccccc2)c1)*; Benzoyl(4-Ph) = O=C(c1ccc(-c2ccccc2)cc1)*; Butanoyl(4-Ph) = O=C(CCCc1ccccc1)*; Octanoyl = CCCCCCCC(=O)*; Dab = NCC[C@H](N)C(=O)O; Abu = CC[C@H](N)C(=O)O; Dap = NC[C@H](N)C(=O)O; Aib = CC(C)(N)C(=O)O

How the values were obtained:
Acinetobacter baumannii = tested on: Acinetobacter baumannii
In short: (§1)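 Broth microdilution MICs following CLSI standards in cation-adjusted Mueller-Hinton broth. Lipopeptides tested as TFA salts; polymyxin B sulphate served as control.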

Enterobacter cloacae = tested on: Enterobacter cloacae
In short: as §1

Klebsiella pneumoniae = tested on: Klebsiella pneumoniae
In short: as §1

Pseudomonas aeruginosa = tested on: Pseudomonas aeruginosa
In short: as §1

P. aeruginosa ATCC 27853 = test: In vivo efficacy in mouse blood infection model (neutropenic Swiss mice); conditions: compound, free base 4 mg/kg intravenously 2 h after inoculation, blood at 4 h
Method: P. aeruginosa ATCC 27853, A. baumannii ATCC 19606 and K. pneumoniae FADDI-KP032 were subcultured on nutrient agar plates. One colony of each bacterial strain was dispersed in 10-mL CAMHB and incubated overnight. On day 2, an aliquot (0.2 mL) of each overnight culture suspension was dispersed in 20-mL CAMHB and incubated for 1.5-2.5 h for production of early log-phase growth bacterial culture. The bacteria in the early log-phase growth suspension were concentrated by centrifugation (3,220 g for 10 min) and re-suspended in sterile 0.9% saline for inoculation into mice. The bacterial cell concentration (colony forming unit [CFU]/mL) in saline was estimated by determining the optical density (OD) of the suspension at 600 nm, and confirmed by plating the suspension on nutrient agar plates. Swiss mice (22 to 28 g) were rendered neutropenic by injecting two doses of cyclophosphamide intraperitoneally, −4 day (150 mg/kg) and −1 day (100 mg/kg) prior to inoculation. Bloodstream infection was established by injecting intravenously 50 μL of early log-phase bacterial suspension (10^8-10^9 CFU/mL). The exact injection volume for each bacterial suspension was calculated based upon the OD value of the bacterial suspension and the desired inoculum for each isolate.
Solutions for administration of colistin, polymyxin B or the compounds were prepared at a concentration of 1 mg (free base) per mL in sterile 0.9% saline. At 2 h after inoculation, a mouse in the treatment groups was injected intravenously with one of the above solutions at 4 μL/g body weight (BW) (i.e. free base 4 mg/kg BW), while the same volume of saline was injected into the control mice. At 0 h or at 4 h after the administration of antibacterial drug or saline (control), animals were euthanised by inhalation of overdose isoflurane. The skin on the chest and fore-paws of each animal was thoroughly cleansed with 70% ethanol and Betadine®. The blood was collected via cardiac puncture using a 1-mL syringe rinsed with heparin (5,000 IU/mL), diluted serially in sterile 0.9% saline and plated on nutrient agar plates using a spiral plater.
The agar plates were incubated at 37° C. overnight. The bacterial colonies on the plate were counted and CFU/mL of the blood was calculated. The log10 CFU/mL of blood in each mouse was calculated. The in vivo activity of the compounds against the bacteria was calculated as the difference of the log10 CFU/mL values between the treated mice and the control mice at 4 h (Δ log=log10 (treated)CFU/mL−log10 (control)CFU/mL).
Any compound showing a decrease in bacterial loading (Δ log) of ≥2 at 4 h is considered to have good in vivo efficacy in this initial screening model.

[1] = Acinetobacter baumannii ATCC 17978, broth microdilution in CAMHB, TFA salt
[2] = Acinetobacter baumannii ATCC 19606, broth microdilution in CAMHB, TFA salt
[3] = Acinetobacter baumannii FADDI-AB034, broth microdilution in CAMHB, TFA salt
[4] = Enterobacter cloacae FADDI-EC001, broth microdilution in CAMHB, TFA salt
[5] = Enterobacter cloacae FADDI-EC003, broth microdilution in CAMHB, TFA salt
[6] = Enterobacter cloacae FADDI-EC006, broth microdilution in CAMHB, TFA salt
[7] = Pseudomonas aeruginosa ATCC 27853, broth microdilution in CAMHB, TFA salt
[8] = Pseudomonas aeruginosa FADDI-PA022, broth microdilution in CAMHB, TFA salt
[9] = Pseudomonas aeruginosa FADDI-PA025, broth microdilution in CAMHB, TFA salt

Row | Compound | MIC (Acinetobacter baumannii) [mg/L] | Minimum inhibitory concentration (MIC), Ab ATCC 17978 (Acinetobacter baumannii) [mg/L] | Minimum inhibitory concentration (MIC), Ab ATCC 19606 (Acinetobacter baumannii) [mg/L] | Minimum inhibitory concentration (MIC), Ab FADDI-AB034 (Acinetobacter baumannii) [mg/L] | Minimum inhibitory concentration (MIC), Ec FADDI-EC001 (Enterobacter cloacae) [mg/L] | Minimum inhibitory concentration (MIC), Ec FADDI-EC003 (Enterobacter cloacae) [mg/L] | Minimum inhibitory concentration (MIC), Ec FADDI-EC006 (Enterobacter cloacae) [mg/L] | MIC (Klebsiella pneumoniae) [mg/L] | MIC (Pseudomonas aeruginosa) [mg/L] | Minimum inhibitory concentration (MIC), Pa ATCC 27853 (Pseudomonas aeruginosa) [mg/L] | Minimum inhibitory concentration (MIC), Pa FADDI-PA022 (Pseudomonas aeruginosa) [mg/L] | Minimum inhibitory concentration (MIC), Pa FADDI-PA025 (Pseudomonas aeruginosa) [mg/L] | Δ log (Treated-Control at 4 h) (P. aeruginosa ATCC 27853) [log10 CFU/mL] | MIC (Acinetobacter baumannii; A. baumannii ATCC 19606) [mg/L] | Minimum inhibitory concentration (MIC), Ab ATCC 17978 (Acinetobacter baumannii; [1]) [mg/L] | Minimum inhibitory concentration (MIC), Ab ATCC 19606 (Acinetobacter baumannii; [2]) [mg/L] | Minimum inhibitory concentration (MIC), Ab FADDI-AB034 (Acinetobacter baumannii; [3]) [mg/L] | Minimum inhibitory concentration (MIC), Ec FADDI-EC001 (Enterobacter cloacae; [4]) [mg/L] | Minimum inhibitory concentration (MIC), Ec FADDI-EC003 (Enterobacter cloacae; [5]) [mg/L] | Minimum inhibitory concentration (MIC), Ec FADDI-EC006 (Enterobacter cloacae; [6]) [mg/L] | other results
1 | CCCCCCCC(=O)N[C@@H](CCN)C(=O)N[C@H](C(=O)N[C@@H](CN)C(=O)N[C@H]1CCNC(=O)[C@H]([C@@H](C)O)NC(=O)[C@H](CCN)NC(=O)[C@H](CCN)NC(=O)C(C)(C)NC(=O)[C@@H](Cc2ccccc2)NC(=O)[C@H](CCN)NC1=O)[C@@H](C)O [Compound 140] (Octanoyl-[Dab]T[Dap][Dab][Dab][dF][Aib][Dab][Dab]T; lactam 4-C) | 2 (≈ 1.74 µM) | 0.5 (≈ 0.436 µM) | 2 (≈ 1.74 µM) | 1 (≈ 0.872 µM) | 0.5 (≈ 0.436 µM) | 0.25 (≈ 0.218 µM) | 1 (≈ 0.872 µM) | 0.25 (≈ 0.218 µM) | 1 (≈ 0.872 µM) | 1 (≈ 0.872 µM) | 1 (≈ 0.872 µM) | 4 (≈ 3.49 µM) | −3.27 |  |  |  |  |  |  |  | 
2 | CC[C@@H]1NC(=O)[C@@H](CC(C)C)NC(=O)[C@H](CCN)NC(=O)[C@@H](NC(=O)[C@H](CN)NC(=O)[C@@H](NC(=O)[C@H](CCN)NC(=O)c2cccc(-c3ccccc3)c2)[C@@H](C)O)CCNC(=O)[C@H]([C@@H](C)O)NC(=O)[C@H](CCN)NC(=O)[C@H](CCN)NC1=O [Compound 138] ({Benzoyl(3-Ph)}-[Dab]T[Dap][Dab][Dab][dL][Abu][Dab][Dab]T; lactam 4-C) |  |  |  |  |  |  |  |  |  |  |  |  | −2.98 | 1 (≈ 0.857 µM) | 0.5 | 1 | 0.5 | 0.5 | 1 | 0.5 | MIC (Klebsiella pneumoniae; K. pneumoniae FADDI-KP032): 0.5 mg/L (≈ 0.428 µM); MIC (Pseudomonas aeruginosa; P. aeruginosa ATCC 27853): 1 mg/L (≈ 0.857 µM); Minimum inhibitory concentration (MIC), Pa ATCC 27853 (Pseudomonas aeruginosa; [7]): 1 mg/L; Minimum inhibitory concentration (MIC), Pa FADDI-PA022 (Pseudomonas aeruginosa; [8]): 2 mg/L; Minimum inhibitory concentration (MIC), Pa FADDI-PA025 (Pseudomonas aeruginosa; [9]): 1 mg/L
3 | CC[C@@H]1NC(=O)[C@@H](CC(C)C)NC(=O)[C@H](CCN)NC(=O)[C@@H](NC(=O)[C@H](CN)NC(=O)[C@@H](NC(=O)[C@H](CCN)NC(=O)c2ccc(-c3ccccc3)cc2)[C@@H](C)O)CCNC(=O)[C@H]([C@@H](C)O)NC(=O)[C@H](CCN)NC(=O)[C@H](CCN)NC1=O [Compound 142] ({Benzoyl(4-Ph)}-[Dab]T[Dap][Dab][Dab][dL][Abu][Dab][Dab]T; lactam 4-C) |  |  |  |  |  |  |  |  |  |  |  |  | −3.89 | 1 (≈ 0.857 µM) | 0.5 | 1 | 0.25 | 0.25 | 1 | 0.5 | MIC (Klebsiella pneumoniae; K. pneumoniae FADDI-KP032): 0.25 mg/L (≈ 0.214 µM); MIC (Pseudomonas aeruginosa; P. aeruginosa ATCC 27853): 1 mg/L (≈ 0.857 µM); Minimum inhibitory concentration (MIC), Pa ATCC 27853 (Pseudomonas aeruginosa; [7]): 1 mg/L; Minimum inhibitory concentration (MIC), Pa FADDI-PA022 (Pseudomonas aeruginosa; [8]): 1 mg/L; Minimum inhibitory concentration (MIC), Pa FADDI-PA025 (Pseudomonas aeruginosa; [9]): 1 mg/L
4 | CC(C)C[C@H]1NC(=O)[C@H](CCN)NC(=O)[C@@H](NC(=O)[C@H](CN)NC(=O)[C@@H](NC(=O)[C@H](CCN)NC(=O)CCCc2ccccc2)[C@@H](C)O)CCNC(=O)[C@H]([C@@H](C)O)NC(=O)[C@H](CCN)NC(=O)[C@H](CCN)NC(=O)[C@H](C)NC1=O [Compound 146] ({Butanoyl(4-Ph)}-[Dab]T[Dap][Dab][Dab][dL]A[Dab][Dab]T; lactam 4-C) | 4 (≈ 3.57 µM) | 1 (≈ 0.893 µM) | 4 (≈ 3.57 µM) | 2 (≈ 1.79 µM) | 0.5 (≈ 0.447 µM) | 0.25 (≈ 0.223 µM) | 0.5 (≈ 0.447 µM) | 0.5 (≈ 0.447 µM) | 0.5 (≈ 0.447 µM) | 0.5 (≈ 0.447 µM) | 0.5 (≈ 0.447 µM) | >32 | −3.63 |  |  |  |  |  |  |  | 
